Reference: US20210038732A1, “ANTICANCER MICRORNA AND LIPID FORMULATIONS THEREOF” (INTERNA TECHNOLOGIES B.V., priority 2018, published 2021)

What was measured:
[1] = system: 3′ untranslated regions (UTR) of NT5E (CD73); assay: 3′UTR luciferase assay in Hela cells; format: cell-based; settings: 10 nM
Description: Firefly luciferase reporter constructs containing the 3′ untranslated regions (UTR) of NT5E (CD73) were transfected in Hela cells along with 10 nM miRNA-193a-3p or a scrambled control. Cell extracts were prepared 24 hours after transfection, and luciferase activity was measured using the Dual Luciferase Reporter Assay System (Promega). If the 3′UTR is a target of the miRNA, miRNA will interact with 3′UTR and provides lower luciferase signal.

4T1 cells = assay: Adoptive CD3+ T-cell transfer from survivors into naive mice, 4T1 challenge; format: in vivo; settings: 1×107 CD3+ T-cells iv; followed about 5 weeks; vs control naïve mice
Description: Adoptive transfer of CD3+ T cells form the survivor mice into naive mice was performed after spleens, auxiliary, brachial, and inguinal lymph nodes excision. Cell suspension were made from the indicated organs and pooled. Then, CD3+ T-cells were isolated from the pool using magnetic beads according the manufacturer's protocol (Miltenyi Biotech). 1×107 CD3+ T-cells per mouse were injected intravenously.
On day 133 post-tumor cell inoculation CD3+ T-cells were recovered from the spleens, auxiliary, brachial, and inguinal lymph nodes of the surviving animals. T-cells were pooled and transferred i.v. to 6 naïve age-matched mice (1×107 CD3+ Tcells per mouse at day 0). One day post-T-cell transfer, animals were re-challenged with 3×10^5 4T1 cells in PBS (0.1 mL/mouse) in the right mammary fat pad of 6 naive age-matched mice (as control group) and the 6 mice that received CD3+ T-cells. Tumor growth was followed for about 5 weeks.

## miRNA-193a: duplex of the miRNA-193a-3p of SEQ ID NO: 218 (mimic, sense) with antisense strand SEQ ID NO: 219; naked in vitro, formulated in vivo (sense UGGGACUUUGUAGGCCAGUUTT; antisense AACUGGCCUACAAAGUCCCAGU; chemistry not given here; listed as Homo sapiens)
[1]
  Luciferase activity of reporter construct containing mutated form of the CD73 3′UTR: did not affect the luciferase activity
[1]; vs mock and scrambled controls
  Luciferase activity of reporter construct containing NT5E 3′UTR region: downregulation of the activity
4T1 cells
  4T1 tumor growth in naive mice that received CD3+ T-cells from treated survivors: did not show any 4T1 tumor growth
